In PubChem BioAssay AID1963441 (Molecular Pharmacology Branch, DTP, NCI, 2024):

Tested on: NCI-H1876 complex spheroid growth, % test/control
Assay: Anticancer human tumor NCI-H1876 cell line growth inhibition [Asc];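 also: compound exposure lasted 7 days starting three days after seeding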;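 as to viability, T/C: 100% = DMSO vehicle control wells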
Conditions: for IC50: curve of first compound; for viability, T/C: stronger effect = lower value
How it was run: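 Concentration series start at each agent's clinical Cmax, or at 10 microM when none is established, and drop in half-log steps; agents are applied alone or together to complex spheroids built with HUVEC and hMSC.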

C=CC(=O)N1CCN(c2nc(=O)n(-c3c(C)ccnc3C(C)C)c3nc(-c4c(O)cccc4F)c(F)cc23)C(C)C1 (configuration not stated) + Cc1c(S(C)(=O)=O)c(-c2cc(F)cc(N3CCN(c4ccc(NS(=O)(=O)c5ccc(NC(CCN6CCC(C(=O)OCCCP(=O)(O)O)CC6)CSc6ccccc6)c(S(=O)(=O)C(F)(F)F)c5)cc4)CC3)c2)c(-c2ccc(Cl)cc2)n1C(C)C
IC50 (second compound 0.0316 µM): > 10 µM
IC50 (second compound 0.1 µM): > 10 µM
IC50 (second compound 0.316 µM): > 10 µM
IC50 (second compound 1 µM): > 10 µM
IC50 (second compound 3.16 µM): > 10 µM
IC50 (second compound 10 µM): > 10 µM
viability, T/C (second compound 0.0316 µM, first compound 0.0316 µM): 91%
viability, T/C (second compound 0.0316 µM, first compound 0.1 µM): 89.5%
viability, T/C (second compound 0.0316 µM, first compound 0.316 µM): 107%
viability, T/C (second compound 0.0316 µM, first compound 1 µM): 95.2%
viability, T/C (second compound 0.0316 µM, first compound 3.16 µM): 103%
viability, T/C (second compound 0.0316 µM, first compound 10 µM): 109%
viability, T/C (second compound 0.1 µM, first compound 0.0316 µM): 85.7%
viability, T/C (second compound 0.1 µM, first compound 0.1 µM): 99.6%
viability, T/C (second compound 0.1 µM, first compound 0.316 µM): 101%
viability, T/C (second compound 0.1 µM, first compound 1 µM): 106%
viability, T/C (second compound 0.1 µM, first compound 3.16 µM): 108%
viability, T/C (second compound 0.1 µM, first compound 10 µM): 107%
viability, T/C (second compound 0.316 µM, first compound 0.0316 µM): 91.1%
viability, T/C (second compound 0.316 µM, first compound 0.1 µM): 114%
viability, T/C (second compound 0.316 µM, first compound 0.316 µM): 97.6%
viability, T/C (second compound 0.316 µM, first compound 1 µM): 103%
viability, T/C (second compound 0.316 µM, first compound 3.16 µM): 109%
viability, T/C (second compound 0.316 µM, first compound 10 µM): 104%
viability, T/C (second compound 1 µM, first compound 0.0316 µM): 105%
viability, T/C (second compound 1 µM, first compound 0.1 µM): 99.4%
viability, T/C (second compound 1 µM, first compound 0.316 µM): 111%
viability, T/C (second compound 1 µM, first compound 1 µM): 98.6%
viability, T/C (second compound 1 µM, first compound 3.16 µM): 110%
viability, T/C (second compound 1 µM, first compound 10 µM): 114%
viability, T/C (second compound 3.16 µM, first compound 0.0316 µM): 96.4%
viability, T/C (second compound 3.16 µM, first compound 0.1 µM): 95.3%
viability, T/C (second compound 3.16 µM, first compound 0.316 µM): 102%
viability, T/C (second compound 3.16 µM, first compound 1 µM): 97.8%
viability, T/C (second compound 3.16 µM, first compound 3.16 µM): 114%
viability, T/C (second compound 3.16 µM, first compound 10 µM): 96.7%
viability, T/C (second compound 10 µM, first compound 0.0316 µM): 99.2%
viability, T/C (second compound 10 µM, first compound 0.1 µM): 96.5%
viability, T/C (second compound 10 µM, first compound 0.316 µM): 99.6%
viability, T/C (second compound 10 µM, first compound 1 µM): 116%
viability, T/C (second compound 10 µM, first compound 3.16 µM): 106%
viability, T/C (second compound 10 µM, first compound 10 µM): 95.1%
